Measured values from ChEMBL document CHEMBL3137667, “[Drug-induced liver injury; fourteenth updated edition of the bibliographic database of liver injuries and related drugs]” (Gastroenterol Clin Biol, 2004).

Experiments:
[1] = Highest frequency of moderate liver toxicity observed during clinical trials, expressed as a percentage. [column '% BIOL' in source]; settings: human
[2] = Highest frequency of acute liver toxicity observed during clinical trials, expressed as a percentage. [column '% AIGUE' in source]; settings: human
[3] = Comments (NB not yet translated). [column 'COMMENTAIRES' in source]; settings: human
[4] = Times to onset, minimal and maximal, observed in the indexed observations. [column 'DELAI' in source]; settings: human
[5] = human, serum
[6] = human, serum; remark: listed apart in the source
[7] = human
[8] = human; remark: listed apart in the source
[9] = human; remark: listed apart in the source
[10] = human, serum, 4383 h
[11] = human; remark: listed apart in the source
[12] = human; remark: listed apart in the source
[13] = human; remark: listed apart in the source
[14] = human; remark: listed apart in the source
[15] = human; remark: listed apart in the source
[16] = human; remark: listed apart in the source
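Throughout, for Hepatotoxicity (association with vascular disease): count of indexed literature references reporting vascular liver injury in humans, e.g. peliosis hepatitis, hepatic veno-occlusive disease or Budd-Chiari syndrome.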
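Throughout, for Hepatotoxicity (benign tumour): value is a count of indexed literature references citing a benign tumour confirmed by histopathology.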
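Throughout, for Hepatotoxicity (choleostasis): human cholestatic liver injury, shown by histopathology or by peak ALT or AST elevation over alkaline phosphatase ratio below 2, value counts indexed literature reports.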
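Throughout, for Hepatotoxicity (chronic liver disease): chronic liver injury confirmed by histopathology or persistently raised serum aminotransferase activity beyond 6 months, value given as the count of indexed literature references.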
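Throughout, for Hepatotoxicity (cirrhosis): value is a count of indexed literature references reporting cirrhosis confirmed by histopathology.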
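Throughout, for Hepatotoxicity (cytolytic): human cytolytic liver injury, shown by histopathology or by a ratio above 5 of peak ALT or AST elevation to alkaline phosphatase elevation, value counts indexed references.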
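Throughout, for Hepatotoxicity (granulomatous hepatitis): value is a count of indexed literature references reporting granulomatous liver disease confirmed by histopathology.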
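Throughout, for Hepatotoxicity (malignant tumour): malignant tumour confirmed by histopathology, value gives the count of indexed literature references reporting it.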
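Throughout, for Hepatotoxicity (severe hepatitis): human clinical data: severe hepatitis, meaning potentially life-threatening liver failure or clinically observed cases, the value counts how many indexed literature references report it.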
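Throughout, for Hepatotoxicity (steatosis): steatosis confirmed by histopathology, value is the count of indexed references.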

SMILES	Hepatotoxicity (moderate) [1] [%]	Hepatotoxicity (acute) [2] [%]	Hepatotoxicity (comment) [3]	Hepatotoxicity (time to onset) [4]	Hepatotoxicity (moderate) [5]	Hepatotoxicity (acute) [6]	Hepatotoxicity (cytolytic) [7]	Hepatotoxicity (choleostasis) [8]	Hepatotoxicity (severe hepatitis) [9]	Hepatotoxicity (chronic liver disease) [10]	Hepatotoxicity (cirrhosis) [11]	Hepatotoxicity (granulomatous hepatitis) [12]	Hepatotoxicity (association with vascular disease) [13]	Hepatotoxicity (steatosis) [14]	Hepatotoxicity (malignant tumour) [15]	Hepatotoxicity (benign tumour) [16]
N=C(N)c1ccc(/C=C/c2ccc(C(=N)N)cc2O)cc1 [HYDROXYSTILBAMIDINE]	0	0	#S.REYE	1 month	0	1	0	0	0	0	0	0	0	1	0	0
C[C@]1(O)CC[C@H]2[C@@H]3CCC4=CC(=O)CC[C@]4(C)[C@@]3(F)[C@@H](O)C[C@@]21C [FLUOXYMESTERONE]	7.1	0	ANGIOSARCOME PELIOSE	6 months - 13 years	2	2	0	2	0	0	0	0	6	0	3	1
Cc1c(O)cccc1C(=O)N[C@@H](CSc1ccccc1)[C@H](O)CN1C[C@H]2CCCC[C@H]2C[C@H]1C(=O)NC(C)(C)C	27	7.4	REACTIVATION_HVB	47 days - 17 months	4	3	3	0	0	0	0	0	0	0	0	0
C[C@]12CC[C@H]3[C@@H](CCC4=CC(=O)CC[C@@]43C)[C@@H]1CC[C@@H]2O [TESTOSTERONE]	0	0	ANGIOSARCOME CHOLESTASE_PROLONGEE PELIOSE	3 months - 11 years	0	3	0	3	1	0	0	0	6	0	2	3
CC(C)(Oc1ccc(C2CC2(Cl)Cl)cc1)C(=O)O (stereo not given) [CIPROFIBRATE]	7.7	0	AC_ANTI-N	24 days - 15 months	7	3	2	1	1	1	1	0	0	0	0	0
O=C(O)c1cc(/N=N/c2ccc(O)c(C(=O)O)c2)ccc1O [OLSALAZINE]	15	0	RC/SULFASALAZINE	3 weeks	1	1	1	1	0	0	0	0	0	0	0	0
CCC1=C(C)CN(C(=O)NCCc2ccc(S(=O)(=O)NC(=O)N[C@H]3CC[C@H](C)CC3)cc2)C1=O [GLIMEPIRIDE]	0	0	CHOLANGIOLITE	2.5 months - 3.3 months	0	2	1	1	0	0	0	0	0	0	0	0
O=C(O)c1cc(=O)c2c(OCC(O)COc3cccc4oc(C(=O)O)cc(=O)c34)cccc2o1 [CROMOLYN]	16.7	0	#CBP	4 months - 10 months	1	0	0	0	0	0	1	1	0	0	0	0
CC(=O)/N=c1/sc(S(N)(=O)=O)nn1C [METHAZOLAMIDE]	0	0	CHOLESTASE_PROLONGEE	2 weeks	0	1	0	1	0	0	0	0	0	0	0	0
O=C(c1ccc(OCCN2CCCCC2)cc1)c1c(-c2ccc(O)cc2)sc2cc(O)ccc12 [RALOXIFENE]	16.7	0	CHOLESTASE_PROLONGEE	30 days	1	1	0	1	0	0	0	0	0	0	0	0
